According to US12653822B2, “Aripiprazole formulations having increased injection speeds” (ALKERMES PHARMA IRELAND LIMITED, priority 2014, dated 2026):

How the values were obtained:
[1] = Phase 3 extension study: rapid IM injection of Compound 1, pain and injection site reactions; format: in vivo, human; conditions: fast injection
Protocol: Injection site reactions and pain upon IM injection of Compound 1 are a potential safety concern. A Phase 3, multicenter, extension study was conducted in 81 sites to assess the effect of rapid IM injections of Compound 1 on human patients diagnosed with stable schizophrenia. Briefly, 332 subjects enrolled in the study were assigned PFS. Compound 1 is formulated as a pre-filled syringe (PFS) of an extended release aqueous suspension of a therapeutically effective amount of Compound 1. An injection volume of 3.4 mL or 1.6 mL of the aqueous suspension was administered according to protocol I at a rate of less than 10 seconds by inserting the 20 gauge needle in the gluteal muscle. ISRs upon IM injection of Compound 1 were assessed at each visit. Over 5000 injections of Compound 1 have been administered intramuscularly with an ISR rate of less than 1%.
• 1. TAP the pre-filled syringe at least 10 times to dislodge any material that may have settled. • 2. […] Replace with new needle (Steps 3 & 4) and administer into an adjacent site in the same gluteal muscle (Steps 5 & 6).] • If you are unable to complete the injection, replace with new needle (Steps 3 & 4) and readminister into an adjacent site in the same gluteal muscle (Steps 5 & 6). • 7. […]

[2] = cited from earlier work

Row | SMILES | injection site reactions and/or elevated pain levels reported, % of patients [1] [%] | Tissue irritation ([2]; following intramuscular (IM) injection and subcutaneous (SC) injection) | Pharmacokinetic profile ([2]; injections)
1 | CCCCCCCCCCCC(=O)OCN1C(=O)CCc2ccc(OCCCCN3CCN(c4cccc(Cl)c4Cl)CC3)cc21 [Compound 1, (7-(4-(4-(2,3-dichlorophenyl)piperazin-1-yl)butoxy)-2-oxo-3,4-dihydroquinolin-1(2H)-yl)methyl dodecanoate] | < 1 |  | 
2 | O=C1CCc2ccc(OCCCCN3CCN(c4cccc(Cl)c4Cl)CC3)cc2N1 [aripiprazole free base, 7-{4-[4-(2,3-dichlorophenyl)-1-piperazinyl]butoxy}-3,4-dihydro-2(1H)-quinolinone] |  | moderate to severe | prolonged
